Values belong to the compound of their own block, whether it stands above or below them.
Legend:
[1] = test system: southern root-knot nematode (Meloidogyne incognita); experiment: Meloidogyne incognita test; format: in vivo; conditions: 20 ppm, after 14 days
Protocol: Meloidogyne incognita Test Solvent: 125.0 parts by weight of acetone To produce a suitable active compound formulation, 1 part by weight of active compound is mixed with the stated amount of solvent and the concentrate is diluted with water to the desired concentration. Vessels are filled with sand, active compound solution, an egg/larvae suspension of the southern root-knot nematode (Meloidogyne incognita) and lettuce seeds. The lettuce seeds germinate and the plants develop. The galls develop on the roots. After 14 days, the nematicidal efficacy in % is determined by the formation of galls. 100% means that no galls were found; 0% means that the number of galls on the treated plants corresponds to the untreated control.

[2] = test system: greenhouse red spider mite (Tetranychus urticae); experiment: Tetranychus urticae spray test, OP-resistant (TETRUR); format: in vivo; conditions: 100 g/ha, spray, after 6 days
Outline: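 Bean (Phaseolus vulgaris) leaf discs infested with all stages of OP-resistant Tetranychus urticae were sprayed with compound in acetone/DMF diluted in water with 1000 ppm emulsifier. Efficacy was scored as % mites killed after 6 days.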

[3] = log P by HPLC (EEC directive 79/831 Annex V.A8); format: physicochemical; conditions: 43° C., acidic range pH 2.7; for log P: HPLC, reversed-phase column (C18)
Outline: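 Measured by reversed-phase HPLC on a C18 column at 43 °C per EEC directive 79/831 Annex V.A8. Calibration used unbranched alkan-2-ones (C3–C16) of known log P.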

[4] = test system: caterpillars of the armyworm (Spodoptera frugiperda); experiment: Spodoptera frugiperda spray test (SPODFR); format: in vivo; conditions: 100 g/ha, spray, after 7 days
Outline: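 Maize leaf discs sprayed with compound in acetone/dimethylformamide diluted in water with 1000 ppm alkylaryl polyglycol ether emulsifier, dried, then infested with armyworm caterpillars. Efficacy in % after 7 days (100% = all caterpillars killed, 0% = none).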

[5] = test system: larvae of the mustard beetle (Phaedon cochleariae); experiment: Phaedon cochleariae spray test (PHAECO); format: in vivo; conditions: 100 g/ha, after 7 days
Outline: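 Compound dissolved in acetone/dimethylformamide and diluted with water containing 1000 ppm alkylaryl polyglycol ether emulsifier to test concentrations. Efficacy in % scored after 7 days: 100% means all beetle larvae killed, 0% none killed.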

[6] = test system: engorged adult female cattle ticks (Boophilus microplus); experiment: Boophilus microplus injection test (BOOPMI inj); format: in vivo; conditions: assessed after 7 days
Outline: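 1 μl of compound in DMSO is injected into the abdomen of 5 engorged females per group, which are then held in a climate-controlled room. After 7 days, egg-laying and egg fertility are scored, with unclear eggs kept about 42 days until hatch; 100% means no fertile eggs laid.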

[7] = test system: adult cat fleas (Ctenocephalides felis); experiment: Ctenocephalides felis oral test (CTECFE); format: in vivo; conditions: 100 ppm, oral in cattle blood, after 2 days
Outline: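 About 20 unfed adult fleas fed through a parafilm membrane on citrated cattle blood containing compound, added from a DMSO stock and diluted to test concentration. Kill % was scored after 2 days, where 100% means all fleas dead and 0% means none.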

[8] = test system: L2 larvae of the banded cucumber beetle (Diabrotica balteata); experiment: Diabrotica balteata drench test (DIABBA); format: in vivo; conditions: 20 ppm, 8 dat
Protocol: Diabrotica balteata—Drench Test (DIABBA) Solvent: 7 parts by weight of dimethylformamide Emulsifier: 2 parts by weight of alkylaryl polyglycol ether To produce a suitable active compound formulation, 1 part by weight of active compound is mixed with the specified amounts of solvent and emulsifier, and the concentrate is diluted with water to the desired concentration, it being necessary to include the volume of soil which is drenched in the calculation. It should be ensured that a concentration of 40 ppm of emulsifier in the soil is not exceeded. To produce further test concentrations, water is used for dilution. […] After one day, 25 L2 larvae of the banded cucumber beetle (Diabrotica balteata) are added. After 8 days, the efficacy in % is determined 100% means that all 5 plants have germinated and grown; 0% means that none of the plants has emerged.

[9] = test system: L1 larvae of the Australian sheep blowfly (Lucilia cuprina); experiment: Lucilia cuprina test (LUCICU); format: in vivo; conditions: 100 ppm, after 2 days
Outline: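 About 20 L1 larvae placed in vessels with minced horsemeat containing compound (DMSO formulation diluted with water to test concentration). Kill in % scored after 2 days.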

[10] = test system: adult houseflies (Musca domestica); experiment: Musca domestica test (MUSCDO); format: in vivo; conditions: 100 ppm, after 2 days
Outline: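 Ten adult houseflies housed with a sponge carrying sugar solution plus compound, formulated in DMSO and diluted with water to test concentration. Mortality (%) scored after 2 days; 100% = all flies dead.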

[11] = test system: cattle ticks (Boophilus microplus) Parkhurst strain, SP-resistant; experiment: Boophilus microplus dip test; format: in vivo; conditions: 20 ppm, assessed after 7 days
Protocol: Boophilus microplus—Dip Test
Test animals: cattle ticks (Boophilus microplus) Parkhurst strain, SP-resistant
Solvent: dimethyl sulphoxide
10 mg of active compound are dissolved in 0.5 ml of dimethyl sulphoxide. For the purpose of producing a suitable formulation, the active compound solution is diluted with water to the concentration desired in each case.
This active compound preparation is pipetted into tubes. 8-10 engorged adult female cattle ticks (Boophilus microplus) are transferred into a further tube with holes. The tube is immersed into the active compound formulation, and all the ticks are completely wetted. After the liquid has run out, the ticks are transferred on filter discs into plastic dishes and stored in a climate-controlled room.
The efficacy is assessed after 7 days by laying of fertile eggs. Eggs which are not visibly fertile are stored in a climate-controlled cabinet until the larvae hatch after about 42 days. An efficacy of 100% means that none of the ticks has laid any fertile eggs; 0% means that all the eggs are fertile.

[12] = test system: Tick nymphs (Amblyomma hebraeum); experiment: Amblyomma hebraeum test (tick nymph immersion); format: in vivo; conditions: 100 ppm, after 42 days
Protocol: Amblyomma Hebaraeum Test Solvent: dimethyl sulphoxide To produce a suitable active compound formulation, 10 mg of active compound are mixed with 0.5 ml of dimethyl sulphoxide, and the concentrate is diluted with water to the desired concentration. Tick nymphs (Amblyomma hebraeum) are placed into perforated plastic beakers and immersed in the desired concentration for one minute. The ticks are transferred on filter paper into a Petri dish and stored in a climate-controlled cabinet. After 42 days, the kill in % is determined. 100% means that all of the ticks have been killed; 0% means that none of the ticks have been killed.

SMILES: C#CCn1c(C(=O)NC(c2ccc(Cl)c(C(F)(F)F)c2)C(F)(F)F)cc2cc(C(=O)NC3(C(N)=S)CC3)c(Cl)cc21 (stereo not drawn) [I-19]
- nematicidal efficacy (formation of galls) [1]: 90%
- efficacy [2]: 100%
- log P [3]: 3.73
- efficacy [4]: 100%
- efficacy [5]: 100%
- efficacy (laying of fertile eggs) [6]: 100%
- efficacy (kill in %) [7]: 100%
- % efficacy [8]: 100%
- efficacy (kill in %) [9]: 100%
- efficacy (kill in %) [10]: 100%

- log P [3]: 3.46
- chromatographic logP ([3]; reversed-phase C18 HPLC column, pH 2.7, HPLC): 3.56
SMILES: CCn1c(C(=O)NC(c2ccc(F)c(C(F)(F)F)c2)C(F)(F)F)nc2cc(C(=O)NC3(C(N)=S)CC3)c(Cl)cc21 (stereo not drawn) [I-30, N5-(1-Carbamothioylcyclopropyl)-6-chloro-1-ethyl-N2-{2,2,2-trifluoro-1-[4-fluoro-3-(trifluoromethyl)phenyl]ethyl}-1H-benzimidazole-2,5-dicarboxamide]
- efficacy (laying of fertile eggs) [11]: 100%
- efficacy [2]: 100%
- efficacy (kill in %) [12]: 100%
- efficacy [4]: 100%
- efficacy [5]: 100%
- efficacy (laying of fertile eggs) [6]: 100%
- efficacy (kill in %) [7]: 100%
- efficacy (kill in %) [9]: 100%
- efficacy (kill in %) [10]: 100%

From patent publication US9802895B2, “Indole and benzimidazolecarboxamides as insecticides and acaricides” (BAYER CROPSCIENCE AKTIENGESELLSCHAFT, priority 2014, dated 2017)
